Literature values, collected in article PMC12454493, “Insight on novel sulfamoylphenyl pyrazole derivatives as anticancer carbonic anhydrase inhibitors” (Molecular Diversity, 2024).

Columns and labels:
hCA IX = hCA IX (Homo sapiens, UniProt Q16790); details: cited from earlier work
hCA XII = hCA XII (Homo sapiens, UniProt O43570); details: cited from earlier work
hCA XII, sequence (O43570 25-354): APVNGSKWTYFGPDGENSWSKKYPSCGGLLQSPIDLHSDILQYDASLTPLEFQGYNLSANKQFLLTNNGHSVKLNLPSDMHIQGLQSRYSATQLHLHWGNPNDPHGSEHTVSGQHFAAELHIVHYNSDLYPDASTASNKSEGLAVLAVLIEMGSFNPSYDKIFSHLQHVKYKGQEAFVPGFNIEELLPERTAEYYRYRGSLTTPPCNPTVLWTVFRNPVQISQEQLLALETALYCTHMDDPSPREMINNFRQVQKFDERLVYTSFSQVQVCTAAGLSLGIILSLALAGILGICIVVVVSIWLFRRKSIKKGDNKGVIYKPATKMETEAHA

Q: What does the source list for `COc1ccc(C2CC(C3=CC=CCC3=S)=NN2c2ccc(S(N)(=O)=O)cc2)c(OC)c1OC` (centres unmarked) [IV]?
A: Ki (hCA IX): 44 nM; Ki (hCA XII): 9 nM
